From patent US8765730B2 (Hoffmann-La Roche Inc, priority 2010, dated 2014)
pEC50: −log10 of the molar value.

Molecular target: T1, human GPBAR1 receptor (Homo sapiens, UniProt Q8TDU6)
T1 construct: expressed in transfected cells
T1 sequence (Q8TDU6 1-330): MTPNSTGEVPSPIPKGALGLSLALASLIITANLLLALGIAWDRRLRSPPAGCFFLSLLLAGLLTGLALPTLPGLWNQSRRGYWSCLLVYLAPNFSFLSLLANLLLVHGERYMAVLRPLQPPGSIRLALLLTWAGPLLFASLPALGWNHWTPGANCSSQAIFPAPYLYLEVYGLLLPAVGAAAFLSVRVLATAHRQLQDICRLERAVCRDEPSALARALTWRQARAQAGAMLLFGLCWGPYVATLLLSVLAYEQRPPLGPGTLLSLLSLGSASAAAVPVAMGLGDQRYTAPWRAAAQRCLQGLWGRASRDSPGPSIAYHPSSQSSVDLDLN
Assay: functional cAMP assay in CHO-dhfr(minus) cells expressing human GPBAR1 receptors
Type: cell-based
Conditions: human EC50, functional cAMP assay, 30 min at 30° C.
Procedure, shortened: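 Agonist cAMP read-out: stable GPBAR1 CHO-dhfr− clone, 30 min compound exposure at 30° C following 30 min IBMX (1 mM) preincubation in Krebs Ringer bicarbonate. Time-resolved energy-transfer detection gives EC50; parental CHO cells serve as counter-screen.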

`Cc1cc(/C(C[C@@H](c2ccc(N3CCC(CC(=O)O)CC3)cc2)c2ccc(F)cc2F)=N/O)ccn1` (single isomer, unassigned) [Example 430, (1-{4-[(+)-1-(2,4-Difluoro-phenyl)-3-[(E)-hydroxyimino]-3-(2-methyl-pyridin-4-yl)-propyl]-phenyl}-piperidin-4-yl)-acetic acid] and `Cc1cc(/C(C[C@H](c2ccc(-c3ccc(C(=O)O)c(F)c3)cc2)c2ccc(Cl)cc2F)=N/O)ccn1` (single isomer, unassigned) [Example 448, 4′-[(−)-1-(4-Chloro-2-fluoro-phenyl)-3-[(E)-hydroxyimino]-3-(2-methyl-pyridin-4-yl)-propyl]-3-fluoro-biphenyl-4-carboxylic acid] are within 0.2 log units of each other in pEC50: 7.68 for the first, 7.74 for the second.

Compared with `Cc1cc(/C(C[C@@H](c2ccc(-c3ccc(C(=O)O)c(F)c3)cc2)c2ccc(Cl)cc2F)=N/O)ccn1` (single isomer, unassigned) [Example 449, 4′-[(+)-1-(4-Chloro-2-fluoro-phenyl)-3-[(E)-hydroxyimino]-3-(2-methyl-pyridin-4-yl)-propyl]-3-fluoro-biphenyl-4-carboxylic acid], `Cc1cc(/C(C[C@@H](c2ccc(-c3ccc(C(=O)O)c(Cl)c3)cc2)c2ccc(Cl)cc2F)=N/O)ccn1` (single isomer, unassigned) [Example 453, (+)-3-Chloro-4′-[1-(4-chloro-2-fluoro-phenyl)-3-[(E)-hydroxyimino]-3-(2-methyl-pyridin-4-yl)-propyl]-biphenyl-4-carboxylic acid] is 0.25 log units higher in pEC50: 8.05 for the first, 8.30 for the second. The second is the more potent here.

`Cn1cc(/C(CC(c2ccc(-c3ccc(CC(=O)O)cc3)cc2)c2ccc(Cl)cc2F)=N/O)ccc1=O` (single isomer, unassigned) [Example 461, {4′-[(−)-1-(4-Chloro-2-fluoro-phenyl)-3-[(E)-hydroxyimino]-3-(1-methyl-6-oxo-1,6-dihydro-pyridin-3-yl)-propyl]-biphenyl-4-yl}-acetic acid] and `Cn1cc(/C(CC(c2ccc(-c3ccc(C(=O)O)cc3)cc2)c2ccc(Cl)cc2F)=N/O)ccc1=O` (single isomer, unassigned; (+)) [Example 241, (+)-4′-[1-(4-Chloro-2-fluoro-phenyl)-3-[(E)-hydroxyimino]-3-(1-methyl-6-oxo-1,6-dihydro-pyridin-3-yl)-propyl]-biphenyl-4-carboxylic acid] are within 0.2 log units of each other in pEC50: 6.81 for the first, 6.77 for the second.

`Cn1cc(/C(CC(c2ccc(-c3ccc(CC(=O)O)cc3)cc2)c2ccc(Cl)cc2F)=N/O)ccc1=O` (single isomer, unassigned) [Example 462, {4′-[(+)-1-(4-chloro-2-fluoro-phenyl)-3-[(E)-hydroxyimino]-3-(1-methyl-6-oxo-1,6-dihydro-pyridin-3-yl)-propyl]-biphenyl-4-yl}-acetic acid] and `Cn1cc(/C(C[C@H](c2ccc(-c3ccc(C(=O)O)c(F)c3)cc2)c2ccc(Cl)cc2F)=N/O)ccc1=O` (single isomer, unassigned) [Example 463, 4′-[(−)-1-(4-Chloro-2-fluoro-phenyl)-3-[(E)-hydroxyimino]-3-(1-methyl-6-oxo-1,6-dihydro-pyridin-3-yl)-propyl]-3-fluoro-biphenyl-4-carboxylic acid] are within 0.2 log units of each other in pEC50: 6.82 for the first, 6.81 for the second.

Compared with `Cn1cc(/C(C[C@@H](c2ccc(-c3ccc(C(=O)O)c(F)c3)cc2)c2ccc(Cl)cc2F)=N/O)ccc1=O` (single isomer, unassigned) [Example 464, 4′-[(+)-1-(4-Chloro-2-fluoro-phenyl)-3-[(E)-hydroxyimino]-3-(1-methyl-6-oxo-1,6-dihydro-pyridin-3-yl)-propyl]-3-fluoro-biphenyl-4-carboxylic acid], `Cn1cc(/C(CC(c2ccc(-c3ccc(C(=O)O)c(F)c3)cc2)c2ccc(Cl)cc2Cl)=N/O)ccc1=O` (single isomer, unassigned) [Example 474, 4′-[(−)-1-(2,4-Dichloro-phenyl)-3-[(E)-hydroxyimino]-3-(1-methyl-6-oxo-1,6-dihydro-pyridin-3-yl)-propyl]-3-fluoro-biphenyl-4-carboxylic acid] is 0.55 log units higher in pEC50: 6.82 for the first, 7.37 for the second. The second is the more potent here.

`Cc1cc(C(=O)O)ccc1-c1ccc([C@@H](C/C(=N\O)c2ccc(=O)n(C)c2)c2ccc(Cl)cc2F)cc1` (single isomer, unassigned) [Example 465, 4′-[(−)-1-(4-Chloro-2-fluoro-phenyl)-3-[(E)-hydroxyimino]-3-(1-methyl-6-oxo-1,6-dihydro-pyridin-3-yl)-propyl]-2-methyl-biphenyl-4-carboxylic acid] and `Cc1cc(C(=O)O)ccc1-c1ccc(C(C/C(=N\O)c2ccc(=O)n(C)c2)c2ccc(Cl)cc2F)cc1` (single isomer, unassigned) [Example 466, 4′-[(+)-1-(4-Chloro-2-fluoro-phenyl)-3-[(E)-hydroxyimino]-3-(1-methyl-6-oxo-1,6-dihydro-pyridin-3-yl)-propyl]-2-methyl-biphenyl-4-carboxylic acid] are the same in pEC50: 6.46 for the first, 6.46 for the second.

Going from `CCOC(=O)c1ccc(-c2ccc([C@H](C/C(=N\O)c3ccc(=O)n(C)c3)c3ccc(Cl)cc3F)cc2)s1` (single isomer, unassigned) [Example 469, 5-{4-[(+)-1-(4-Chloro-2-fluoro-phenyl)-3-[(E)-hydroxyimino]-3-(1-methyl-6-oxo-1,6-dihydro-pyridin-3-yl)-propyl]-phenyl}-thiophene-2-carboxylic acid ethyl ester] to `Cn1cc(/C(CC(c2ccc(Br)cc2)c2ccc(Cl)cc2F)=N/O)ccc1=O` (single isomer, unassigned; (+)) [Example 239, (+)-5-{3-(4-Bromo-phenyl)-3-(4-chloro-2-fluoro-phenyl)-1-[(E)-hydroxyimino]-propyl}-1-methyl-1H-pyridin-2-one], the pEC50 rises from 6.38 to 7.62 (1.24 log units).

`Cn1cc(/C(CC(c2ccc(-c3ccc(C(=O)O)c(F)c3)cc2)c2ccc(Cl)cc2Cl)=N/O)ccc1=O` (single isomer, unassigned) [Example 475, 4′-[(+)-1-(2,4-dichloro-phenyl)-3-[(E)-hydroxyimino]-3-(1-methyl-6-oxo-1,6-dihydro-pyridin-3-yl)-propyl]-3-fluoro-biphenyl-4-carboxylic acid] and `Cc1cc(C(=O)O)ccc1-c1ccc(C(C/C(=N\O)c2ccc(=O)n(C)c2)c2ccc(Cl)cc2Cl)cc1` (single isomer, unassigned) [Example 477, 4′-[(−)-1-(2,4-Dichloro-phenyl)-3-[(E)-hydroxyimino]-3-(1-methyl-6-oxo-1,6-dihydro-pyridin-3-yl)-propyl]-2-methyl-biphenyl-4-carboxylic acid] are within 0.2 log units of each other in pEC50: 6.78 for the first, 6.95 for the second.

Compared with `Cc1cc(C(=O)O)ccc1-c1ccc(C(C/C(=N\O)c2ccc(=O)n(C)c2)c2ccc(Cl)cc2Cl)cc1` (single isomer, unassigned) [Example 478, 4′-[(+)-1-(2,4-dichloro-phenyl)-3-[(E)-hydroxyimino]-3-(1-methyl-6-oxo-1,6-dihydro-pyridin-3-yl)-propyl]-2-methyl-biphenyl-4-carboxylic acid], `Cc1cc(Cl)ccc1C(C/C(=N\O)c1ccc(=O)n(C)c1)c1ccc(-c2ccc(C(=O)NCC(=O)O)cc2)cc1` (single isomer, unassigned; (+)) [Example 256, (+)-({4′-[1-(4-Chloro-2-methyl-phenyl)-3-[(E)-hydroxyimino]-3-(1-methyl-6-oxo-1,6-dihydro-pyridin-3-yl)-propyl]-biphenyl-4-carbonyl}-amino)-acetic acid] is 1.57 log units higher in pEC50: 6.43 for the first, 8.00 for the second. The second is the more potent here.

Going from `Cc1ccccc1C(C/C(=N\O)c1ccncc1)c1ccc(-c2cncnc2)cc1` (single isomer, unassigned; (+)) [Example 35, (+)-(E)-1-Pyridin-4-yl-3-(4-pyrimidin-5-yl-phenyl)-3-o-tolyl-propan-1-one oxime] to `Cc1ccccc1C(C/C(=N/O)c1ccncc1)c1ccc(-c2cncnc2)cc1` (single isomer, unassigned; (+)) [Example 38, (+)-(Z)-1-pyridin-4-yl-3-(4-pyrimidin-5-yl-phenyl)-3-o-tolyl-propan-1-one oxime], the pEC50 falls from 7.17 to 5.12 (2.05 log units). The first is the more potent here.

Going from `Cc1ccccc1C(C/C(=N\O)c1cc(Cl)ccc1Cl)c1ccc(Br)cc1` (single isomer, unassigned; (+)) [Example 50, (+)-(E)-3-(4-Bromo-phenyl)-1-(2,5-dichloro-phenyl)-3-o-tolyl-propan-1-one oxime] to `Cc1ccccc1C(C/C(=N\O)c1ccncc1)c1ccc(-c2cncnc2)cc1` (single isomer, unassigned; (-)) [Example 36, (−)-(E)-1-pyridin-4-yl-3-(4-pyrimidin-5-yl-phenyl)-3-o-tolyl-propan-1-one oxime], the pEC50 rises from 6.11 to 7.96 (1.85 log units).

`COC(=O)CNC(=O)c1ccc(-c2ccc(C(C/C(=N\O)c3ccc(=O)n(C)c3)c3ccc(Cl)cc3C)cc2)cc1` (single isomer, unassigned; (+)) [Example 254, (+)-({4′-[1-(4-chloro-2-methyl-phenyl)-3-[(E)-hydroxyimino]-3-(1-methyl-6-oxo-1,6-dihydro-pyridin-3-yl)-propyl]-biphenyl-4-carbonyl}-amino)-acetic acid methyl ester] and `Cc1cc(Cl)ccc1C(C/C(=N\O)c1ccc(=O)n(C)c1)c1ccc(S(C)(=O)=O)cc1` (single isomer, unassigned; (+)) [Example 334, (+)-(E)-5-(3-(4-chloro-2-methylphenyl)-1-(hydroxyimino)-3-(4-(methylsulfonyl)phenyl)-propyl)-1-methylpyridin-2(1H)-one] are within 0.2 log units of each other in pEC50: 7.22 for the first, 7.17 for the second.

`Cc1ccccc1C(C/C(=N/O)c1ccncc1)c1ccc(-c2cncnc2)cc1` (single isomer, unassigned; (-)) [Example 37, (−)-(Z)-1-pyridin-4-yl-3-(4-pyrimidin-5-yl-phenyl)-3-o-tolyl-propan-1-one oxime] showed a pEC50 of 5.66.
